Data as given in ChEMBL document CHEMBL5465560, “Selectivity Literature for EUbOPEN Chemogenomic Library” (2024).
Values belong to the compound of their own block, whether it stands above or below them.

What was measured:
[1] = molecular target: RAC-alpha serine/threonine-protein kinase (Homo sapiens, UniProt P31749); assay: Selectivity interaction (Upstate Kinase Profiler service (Millipore)) EUB0000056c AKT1; conditions: at 1 µM
[2] = tested on: Epidermal growth factor receptor (Homo sapiens), P00533 [L858R,T790M]; assay: (§1) Selectivity interaction (KinomeScan (DiscoverX)) EUB0001079a EGFR; conditions: at 1 µM
[3] = tested on: Epidermal growth factor receptor (Homo sapiens), P00533 [L861Q]; assay: as §1; conditions: at 1 µM
[4] = molecular target: Epidermal growth factor receptor (Homo sapiens, UniProt P00533); assay: as §1; conditions: at 1 µM
[5] = tested on: Epidermal growth factor receptor (Homo sapiens), P00533 [G719C]; assay: as §1; conditions: at 1 µM
[6] = tested on: Epidermal growth factor receptor (Homo sapiens), P00533 [T790M]; assay: as §1; conditions: at 1 µM
[7] = tested on: Epidermal growth factor receptor (Homo sapiens), P00533 [G719S]; assay: as §1; conditions: at 1 µM
[8] = tested on: Epidermal growth factor receptor (Homo sapiens), P00533 [UNDEFINED MUTATION]; assay: as §1; conditions: at 1 µM
[9] = tested on: Epidermal growth factor receptor (Homo sapiens), P00533 [L858R]; assay: as §1; conditions: at 1 µM
[10] = molecular target: MAP kinase-activated protein kinase 5 (Homo sapiens, UniProt Q8IW41); assay: Selectivity interaction (Kinase panel (33PanQinase(R) Activity Assay)) EUB0000877a MAPKAPK5
[11] = molecular target: Glycogen synthase kinase-3 alpha (Homo sapiens, UniProt P49840); assay: Selectivity interaction (ActivX KiNativ screen (kinase selectivity in THP-1 cell lysates)) EUB0000639a GSK3A; type: subcellular; conditions: lysate
[12] = molecular target: Fibroblast growth factor receptor 4 (Homo sapiens, UniProt P22455); assay: Selectivity interaction (KinomeScan (DiscoverX)) EUB0001049a FGFR4; conditions: at 1 µM
[13] = molecular target: T1, Serine/threonine-protein kinase RIO3 (Homo sapiens) (UniProt O14730); assay: Selectivity interaction (KinomeScan (DiscoverX)) EUB0001049a RIOK3; conditions: at 1 µM
T1 sequence (whole entry): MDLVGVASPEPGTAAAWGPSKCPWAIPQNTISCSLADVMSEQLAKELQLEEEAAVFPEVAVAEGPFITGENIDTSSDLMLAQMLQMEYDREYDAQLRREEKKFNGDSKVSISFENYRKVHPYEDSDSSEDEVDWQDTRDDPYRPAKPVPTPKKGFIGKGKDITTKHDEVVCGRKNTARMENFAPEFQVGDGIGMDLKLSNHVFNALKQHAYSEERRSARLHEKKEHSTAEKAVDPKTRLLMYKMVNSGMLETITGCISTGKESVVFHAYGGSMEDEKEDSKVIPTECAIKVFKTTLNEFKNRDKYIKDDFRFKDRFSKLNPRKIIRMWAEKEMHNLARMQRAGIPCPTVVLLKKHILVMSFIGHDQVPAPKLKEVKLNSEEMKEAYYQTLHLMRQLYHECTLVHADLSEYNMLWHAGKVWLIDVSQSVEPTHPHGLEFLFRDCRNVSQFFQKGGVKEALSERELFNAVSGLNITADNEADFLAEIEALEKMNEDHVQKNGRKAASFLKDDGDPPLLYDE

[14] = molecular target: T2, Homeodomain-interacting protein kinase 4 (Homo sapiens) (UniProt Q8NE63); assay: Selectivity interaction (KinomeScan (DiscoverX)) EUB0001049a HIPK4; conditions: at 1 µM
T2 sequence (whole entry): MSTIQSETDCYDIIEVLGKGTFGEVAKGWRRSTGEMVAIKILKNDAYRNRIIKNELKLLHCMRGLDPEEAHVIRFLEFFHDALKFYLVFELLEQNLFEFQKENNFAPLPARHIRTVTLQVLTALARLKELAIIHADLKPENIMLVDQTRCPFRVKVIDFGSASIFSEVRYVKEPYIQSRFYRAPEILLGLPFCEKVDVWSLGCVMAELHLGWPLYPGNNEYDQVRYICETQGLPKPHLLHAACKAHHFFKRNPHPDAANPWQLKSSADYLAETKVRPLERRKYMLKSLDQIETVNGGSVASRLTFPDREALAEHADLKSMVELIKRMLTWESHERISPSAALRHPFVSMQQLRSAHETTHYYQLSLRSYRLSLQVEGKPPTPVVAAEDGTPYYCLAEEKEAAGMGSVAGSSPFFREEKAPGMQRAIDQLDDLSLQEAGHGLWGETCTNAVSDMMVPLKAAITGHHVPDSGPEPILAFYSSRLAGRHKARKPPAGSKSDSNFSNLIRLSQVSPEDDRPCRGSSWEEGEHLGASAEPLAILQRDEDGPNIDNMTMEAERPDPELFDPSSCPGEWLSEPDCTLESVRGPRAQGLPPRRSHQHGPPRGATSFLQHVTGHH

[15] = molecular target: T3, Aurora kinase C (Homo sapiens) (UniProt Q9UQB9); conditions: at 10 µM
T3 sequence (whole entry): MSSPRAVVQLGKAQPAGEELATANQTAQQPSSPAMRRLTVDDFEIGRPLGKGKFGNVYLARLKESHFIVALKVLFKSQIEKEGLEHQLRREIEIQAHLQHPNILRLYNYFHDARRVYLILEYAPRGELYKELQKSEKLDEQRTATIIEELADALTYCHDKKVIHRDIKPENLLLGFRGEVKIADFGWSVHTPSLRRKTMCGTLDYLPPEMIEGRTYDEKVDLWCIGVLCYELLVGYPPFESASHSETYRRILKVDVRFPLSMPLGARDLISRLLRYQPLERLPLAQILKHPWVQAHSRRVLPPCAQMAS

[16] = molecular target: Receptor-interacting serine/threonine-protein kinase 2 (Homo sapiens, UniProt O43353); assay: Selectivity interaction (KinomeScan (DiscoverX)) EUB0000595a RIPK2; conditions: at 10 µM

Chain of Glycogen synthase kinase-3 alpha (P49840 2-483 limits assumed): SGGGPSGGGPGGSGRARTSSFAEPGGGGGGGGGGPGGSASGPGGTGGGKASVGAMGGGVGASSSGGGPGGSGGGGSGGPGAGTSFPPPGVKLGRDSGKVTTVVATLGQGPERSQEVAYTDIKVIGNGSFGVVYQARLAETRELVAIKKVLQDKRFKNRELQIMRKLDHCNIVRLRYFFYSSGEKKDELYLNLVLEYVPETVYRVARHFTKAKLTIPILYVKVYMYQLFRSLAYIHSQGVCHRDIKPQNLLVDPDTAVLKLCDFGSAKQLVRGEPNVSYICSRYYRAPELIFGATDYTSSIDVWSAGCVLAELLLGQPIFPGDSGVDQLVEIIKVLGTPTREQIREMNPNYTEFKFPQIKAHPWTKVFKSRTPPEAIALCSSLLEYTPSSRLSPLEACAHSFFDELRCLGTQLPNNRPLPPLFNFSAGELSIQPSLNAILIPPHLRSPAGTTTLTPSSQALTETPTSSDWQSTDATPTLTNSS
Chain of Epidermal growth factor receptor (Homo sapiens), P00533 [L858R,T790M] (P00533 whole entry T790M/L858R, looked up): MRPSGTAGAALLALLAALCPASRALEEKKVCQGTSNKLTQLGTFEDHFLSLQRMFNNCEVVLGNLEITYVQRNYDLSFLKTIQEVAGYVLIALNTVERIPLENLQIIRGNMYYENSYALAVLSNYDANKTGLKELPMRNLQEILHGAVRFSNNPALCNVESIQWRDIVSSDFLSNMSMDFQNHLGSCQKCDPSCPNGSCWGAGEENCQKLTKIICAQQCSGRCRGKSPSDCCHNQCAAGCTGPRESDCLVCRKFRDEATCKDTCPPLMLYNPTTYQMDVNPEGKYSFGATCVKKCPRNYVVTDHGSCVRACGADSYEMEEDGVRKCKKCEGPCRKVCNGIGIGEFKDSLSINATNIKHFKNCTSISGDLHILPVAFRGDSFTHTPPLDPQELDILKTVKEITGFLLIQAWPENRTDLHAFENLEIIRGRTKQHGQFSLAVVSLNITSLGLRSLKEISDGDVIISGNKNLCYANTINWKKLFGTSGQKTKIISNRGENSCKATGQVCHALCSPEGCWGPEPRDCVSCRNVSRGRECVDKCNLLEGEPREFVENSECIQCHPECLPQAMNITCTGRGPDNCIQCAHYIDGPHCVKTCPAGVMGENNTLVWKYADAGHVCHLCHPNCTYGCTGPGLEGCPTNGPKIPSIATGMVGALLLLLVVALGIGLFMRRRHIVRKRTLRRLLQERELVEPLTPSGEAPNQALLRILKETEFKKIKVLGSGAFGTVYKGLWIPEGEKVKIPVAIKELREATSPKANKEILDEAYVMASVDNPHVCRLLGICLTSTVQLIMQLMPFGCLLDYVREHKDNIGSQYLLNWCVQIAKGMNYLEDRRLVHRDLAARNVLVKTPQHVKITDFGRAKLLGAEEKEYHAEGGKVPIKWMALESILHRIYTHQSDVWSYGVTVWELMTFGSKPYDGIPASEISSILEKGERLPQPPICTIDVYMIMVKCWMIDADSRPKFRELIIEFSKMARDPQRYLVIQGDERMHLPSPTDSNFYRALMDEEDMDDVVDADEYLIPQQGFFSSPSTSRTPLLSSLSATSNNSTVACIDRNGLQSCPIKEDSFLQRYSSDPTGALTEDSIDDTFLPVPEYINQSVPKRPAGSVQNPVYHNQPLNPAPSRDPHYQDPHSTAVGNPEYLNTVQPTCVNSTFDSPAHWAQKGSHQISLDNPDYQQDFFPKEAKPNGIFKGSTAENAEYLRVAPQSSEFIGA
Chain of Fibroblast growth factor receptor 4 (P22455 22-802 limits assumed): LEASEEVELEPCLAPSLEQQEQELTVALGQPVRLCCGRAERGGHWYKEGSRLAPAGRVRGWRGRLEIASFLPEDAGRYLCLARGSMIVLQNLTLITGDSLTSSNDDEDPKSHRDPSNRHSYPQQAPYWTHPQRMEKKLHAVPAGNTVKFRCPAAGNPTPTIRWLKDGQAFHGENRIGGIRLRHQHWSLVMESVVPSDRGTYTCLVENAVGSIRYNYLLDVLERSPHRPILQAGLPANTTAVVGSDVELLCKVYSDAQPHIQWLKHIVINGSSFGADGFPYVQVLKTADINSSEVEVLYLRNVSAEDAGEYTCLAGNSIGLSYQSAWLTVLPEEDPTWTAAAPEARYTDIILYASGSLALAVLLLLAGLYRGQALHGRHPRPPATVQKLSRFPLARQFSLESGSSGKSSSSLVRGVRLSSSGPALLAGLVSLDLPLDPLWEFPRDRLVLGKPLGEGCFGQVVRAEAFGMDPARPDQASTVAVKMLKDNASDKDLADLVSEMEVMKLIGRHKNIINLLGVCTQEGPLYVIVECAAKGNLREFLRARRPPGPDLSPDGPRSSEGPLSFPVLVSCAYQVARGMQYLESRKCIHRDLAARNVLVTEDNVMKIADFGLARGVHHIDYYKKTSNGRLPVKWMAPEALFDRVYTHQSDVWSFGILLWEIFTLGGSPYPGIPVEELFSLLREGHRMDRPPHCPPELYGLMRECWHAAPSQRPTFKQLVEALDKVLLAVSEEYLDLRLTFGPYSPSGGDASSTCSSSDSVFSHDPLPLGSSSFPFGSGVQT
Chain of Epidermal growth factor receptor (Homo sapiens), P00533 [T790M] (P00533 whole entry T790M): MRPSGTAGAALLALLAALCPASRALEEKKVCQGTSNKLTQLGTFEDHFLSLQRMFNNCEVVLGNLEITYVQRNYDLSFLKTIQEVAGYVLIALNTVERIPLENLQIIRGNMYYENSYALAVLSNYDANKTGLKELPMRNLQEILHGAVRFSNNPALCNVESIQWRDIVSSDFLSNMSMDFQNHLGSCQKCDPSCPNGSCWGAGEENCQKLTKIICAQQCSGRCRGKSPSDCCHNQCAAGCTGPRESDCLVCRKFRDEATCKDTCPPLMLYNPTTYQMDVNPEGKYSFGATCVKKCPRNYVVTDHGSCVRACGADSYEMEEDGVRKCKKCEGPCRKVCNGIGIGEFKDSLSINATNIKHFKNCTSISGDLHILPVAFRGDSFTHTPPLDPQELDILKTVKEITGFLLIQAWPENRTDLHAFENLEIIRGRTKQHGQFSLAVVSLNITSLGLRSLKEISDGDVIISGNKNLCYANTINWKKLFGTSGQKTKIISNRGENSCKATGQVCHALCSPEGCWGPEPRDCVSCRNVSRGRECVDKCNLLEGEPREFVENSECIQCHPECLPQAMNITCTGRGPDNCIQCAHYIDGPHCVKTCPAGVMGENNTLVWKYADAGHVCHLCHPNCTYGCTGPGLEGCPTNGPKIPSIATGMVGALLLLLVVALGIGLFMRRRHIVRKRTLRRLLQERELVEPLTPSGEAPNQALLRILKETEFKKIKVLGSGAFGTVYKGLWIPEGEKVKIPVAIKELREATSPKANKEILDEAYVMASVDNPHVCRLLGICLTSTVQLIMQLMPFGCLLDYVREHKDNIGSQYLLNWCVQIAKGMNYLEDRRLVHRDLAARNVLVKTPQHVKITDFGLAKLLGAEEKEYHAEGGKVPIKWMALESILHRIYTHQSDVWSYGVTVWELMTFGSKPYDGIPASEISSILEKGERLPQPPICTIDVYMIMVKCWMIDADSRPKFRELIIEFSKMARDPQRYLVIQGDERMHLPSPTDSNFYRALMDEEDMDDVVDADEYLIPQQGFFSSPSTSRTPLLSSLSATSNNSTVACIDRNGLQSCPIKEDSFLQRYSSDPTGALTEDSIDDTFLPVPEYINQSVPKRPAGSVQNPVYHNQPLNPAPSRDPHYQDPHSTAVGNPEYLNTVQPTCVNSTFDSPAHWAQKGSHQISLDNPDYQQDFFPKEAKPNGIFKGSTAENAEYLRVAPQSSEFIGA
Chain of Epidermal growth factor receptor (Homo sapiens), P00533 [UNDEFINED MUTATION] (P00533 whole entry, looked up, stated change not applied): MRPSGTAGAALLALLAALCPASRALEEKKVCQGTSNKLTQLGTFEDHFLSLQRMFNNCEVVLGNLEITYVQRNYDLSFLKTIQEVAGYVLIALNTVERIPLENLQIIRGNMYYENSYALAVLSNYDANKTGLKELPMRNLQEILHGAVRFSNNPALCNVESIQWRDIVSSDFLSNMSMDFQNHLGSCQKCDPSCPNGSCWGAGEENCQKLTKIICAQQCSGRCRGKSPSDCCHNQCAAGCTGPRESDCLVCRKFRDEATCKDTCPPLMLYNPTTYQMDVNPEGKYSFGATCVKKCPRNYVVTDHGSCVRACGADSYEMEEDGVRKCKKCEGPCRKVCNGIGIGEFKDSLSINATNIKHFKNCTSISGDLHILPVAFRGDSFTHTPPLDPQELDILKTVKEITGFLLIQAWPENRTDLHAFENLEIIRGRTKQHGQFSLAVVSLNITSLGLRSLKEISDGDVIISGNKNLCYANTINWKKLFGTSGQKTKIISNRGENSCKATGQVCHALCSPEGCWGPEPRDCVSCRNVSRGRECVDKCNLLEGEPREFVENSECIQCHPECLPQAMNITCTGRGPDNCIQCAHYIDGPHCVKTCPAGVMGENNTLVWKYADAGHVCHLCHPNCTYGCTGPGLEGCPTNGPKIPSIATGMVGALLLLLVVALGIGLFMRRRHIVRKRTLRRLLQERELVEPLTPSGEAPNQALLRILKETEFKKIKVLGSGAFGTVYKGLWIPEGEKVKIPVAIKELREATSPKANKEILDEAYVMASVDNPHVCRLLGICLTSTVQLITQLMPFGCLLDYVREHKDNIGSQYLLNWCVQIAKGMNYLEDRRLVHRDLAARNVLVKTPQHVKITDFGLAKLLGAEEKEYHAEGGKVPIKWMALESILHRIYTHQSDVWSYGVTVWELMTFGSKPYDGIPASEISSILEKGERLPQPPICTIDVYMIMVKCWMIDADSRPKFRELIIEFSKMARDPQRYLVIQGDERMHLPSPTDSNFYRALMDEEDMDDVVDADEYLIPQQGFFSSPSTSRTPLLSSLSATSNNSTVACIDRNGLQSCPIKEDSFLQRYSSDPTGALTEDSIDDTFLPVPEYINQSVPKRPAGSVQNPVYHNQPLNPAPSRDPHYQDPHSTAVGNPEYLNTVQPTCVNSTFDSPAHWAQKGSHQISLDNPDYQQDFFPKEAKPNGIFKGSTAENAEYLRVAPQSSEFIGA

Structure (SMILES): Nc1cnc(N2CCc3cc(S(=O)(=O)Nc4c(F)cc(Cl)cc4F)cc(N4CCCC4=O)c32)nc1 [TP-020n]
% of control [2]: 77%
% of control [3]: 100%
% of control [4]: 82%
% of control [5]: 100%
% of control [6]: 88%
% of control [7]: 75%
% of control [8]: 74%
% of control [9]: 85%

Structure (SMILES): COc1cc(Nc2nc(C)cc(-c3cnn4nc(OC)ccc34)n2)cc(C(F)(F)F)c1
% of control [12]: 100%
% of control [13]: 86%
% of control [14]: 92%

Structure (SMILES): COCC(=O)NC/C=C/c1ccc2ncnc(Nc3ccc(Oc4ccc(C)nc4)c(C)c3)c2c1 [CP-724714]
% of control [15]: 67%
% of control [16]: 26%

More lines, now with the values ahead:

% of inhibition [1]: -3%
Structure (SMILES): Cc1ccc(-c2ccc3c(ccc4sc5c(c43)NC[C@@H](C)NC5=O)n2)cn1

IC50 [10]: > 10 µM
Structure (SMILES): CCC(=O)N1CC[C@H](Nc2ncnc3c2CN(c2cnc(OC)c(C(F)(F)F)c2)CC3)C1 [LENIOLISIB]

% of inhibition ([11]; at 0.01 µM): -6%
% of inhibition ([11]; at 0.04 µM): -6.7%
% of inhibition ([11]; at 0.2 µM): -1.9%
% of inhibition ([11]; at 1 µM): 8.1%
% of inhibition ([11]; at 5 µM): 18.5%
Structure (SMILES): CC[C@@H]1[C@H](F)C(=O)N[C@@H]1COc1nccc2cc(C(N)=O)c(OC)cc12 [ZIMLOVISERTIB]
